Measured values reported in PubChem BioAssay (NCI).
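Five concentrations, 48 hours, 96-well plates. The concentration for 50% growth inhibition is given as GI50. At the TGI there is no net growth.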

Assays:
Assay in all cases: NCI anticancer screen, dose series, 48 h
OVCAR-8 ovarian = test system: OVCAR-8 ovarian
LOX IMVI melanoma = test system: LOX IMVI melanoma
HCT-15 colon = test system: HCT-15 colon
HOP-62 NSCLC = test system: HOP-62 NSCLC
PC-3 prostate = test system: PC-3 prostate
OVCAR-3 ovarian = test system: OVCAR-3 ovarian
U251 CNS = test system: U251 CNS
SN12C renal = test system: SN12C renal

Compound | GI50 (OVCAR-8 ovarian) | TGI (OVCAR-8 ovarian) | GI50 (LOX IMVI melanoma) | TGI (LOX IMVI melanoma) | GI50 (HCT-15 colon) | TGI (HCT-15 colon) | GI50 (HOP-62 NSCLC) | TGI (HOP-62 NSCLC) | GI50 (PC-3 prostate) | TGI (PC-3 prostate) | GI50 (OVCAR-3 ovarian) | TGI (OVCAR-3 ovarian) | GI50 (U251 CNS) | TGI (U251 CNS) | GI50 (SN12C renal) | TGI (SN12C renal)
CC/C(=C/c1ccc(OC)cc1)[N+](=O)[O-] | 2.23 µM | 4.98 µM | 1.47 µM | 2.98 µM | 1.48 µM | 3.08 µM | 2.23 µM | 5.89 µM | 1.98 µM | 3.87 µM | 1.86 µM | 3.35 µM | 3.18 µM | 10.5 µM | 2.28 µM | 5.44 µM
N#Cc1ccc2c(-c3ccnc(NC4CC4)n3)c(-c3ccc(F)cc3)nn2c1 | > 25 µM | > 25 µM | > 25 µM | > 25 µM | > 25 µM | > 25 µM | > 25 µM | > 25 µM | > 25 µM | > 25 µM | > 25 µM | > 25 µM | > 25 µM | > 25 µM | > 25 µM | > 25 µM
NS(=O)(=O)c1cccc(Nc2cc(-c3ccc(F)cc3)[nH]n2)c1 | 19.4 µM | > 25 µM | 20.7 µM | > 25 µM | 19.3 µM | > 25 µM | > 25 µM | > 25 µM | > 23.6 µM | > 25 µM | 19.5 µM | > 25 µM | 16.5 µM | > 25 µM | > 20.7 µM | > 25 µM
O=C1c2ccccc2-c2cn(Cc3ccccc3)c3cccc(c23)C1c1cccnc1 (centres undefined) | 9.3 µM | > 50 µM | 2.76 µM | > 50 µM | 2.54 µM | > 50 µM | 3.44 µM | > 50 µM | 5.94 µM | > 50 µM | 1.8 µM | 4.95 µM | – | – | 3.08 µM | > 50 µM
Cc1ccc2nc(CN(CCN(Cc3nc4ccc(C)cc4[nH]3)Cc3nc4ccc(C)cc4[nH]3)Cc3nc4ccc(C)cc4[nH]3)[nH]c2c1 | 1.76 µM | 3.22 µM | 1.66 µM | 3.03 µM | 1.62 µM | 3.01 µM | 1.83 µM | 3.24 µM | 1.85 µM | 3.51 µM | 1.84 µM | 3.31 µM | 1.61 µM | 2.97 µM | 1.86 µM | 3.26 µM
COc1ccc(/C=C\c2cc(OC)c(OC)c(OC)c2)cc1NC(=O)/C=C/c1cc(OC)c(OC)c(OC)c1 | 5.14 µM | > 100 µM | 4.9 µM | > 100 µM | 5.14 µM | > 100 µM | 4.62 µM | > 100 µM | 3.09 µM | > 100 µM | 5.62 µM | > 100 µM | 3.82 µM | > 100 µM | 4.56 µM | > 100 µM
CN(C)NC(=O)NC12CC3CC(CC(C3)C1)C2 | – | > 100 µM | – | > 100 µM | – | > 100 µM | – | – | – | – | – | – | – | > 100 µM | – | > 100 µM
COC(=O)c1sc(-n2cnc3cc(OC)c(OC)cc32)cc1OCc1ccccc1C(F)(F)F | 15.3 µM | > 25 µM | > 25 µM | > 25 µM | > 25 µM | > 25 µM | 9.22 µM | > 25 µM | > 25 µM | > 25 µM | > 25 µM | > 25 µM | 10.8 µM | > 25 µM | > 25 µM | > 25 µM
COc1ccc2c(Cl)cc(NC(=S)Nc3ccccc3)nc2c1 | – | 38.4 µM | – | 44 µM | – | > 100 µM | – | > 100 µM | – | 66.4 µM | – | > 100 µM | – | 36.4 µM | – | > 100 µM
COc1oc(C2C/C(=C/C(C)=C/C(C)=C/C(C)=C/c3ccc([N+](=O)[O-])cc3)CO2)c(C)c(=O)c1C (centres undefined) | – | 32.5 µM | – | 23.4 µM | – | > 56.6 µM | – | > 100 µM | – | 18.4 µM | – | 54.9 µM | – | 31.5 µM | – | 27 µM
CCOC(=O)Nc1cc2c(c(N)n1)N=C(c1ccc(Cl)cc1Cl)CN2 | – | 37.2 µM | – | 44.8 µM | – | 9.02 µM | – | 19.8 µM | – | 14.9 µM | – | 0.0133 µM | – | 18 µM | – | 28.8 µM
C=C(CN1CCN(c2cc(C(F)(F)F)cc(C(F)(F)F)c2)CC1)c1ccc(C(=O)Nc2ccccc2N)cc1 | 9.55 µM | > 100 µM | 2.34 µM | > 100 µM | 3.96 µM | > 100 µM | 16.2 µM | > 100 µM | 2.92 µM | 31 µM | 3.18 µM | 21.2 µM | 10.1 µM | > 100 µM | 2.47 µM | 13.4 µM
Oc1ccccc1/C=N\NC(=S)Nc1ccc(F)cc1 | 1.22 µM | > 63.1 µM | 0.708 µM | > 79.7 µM | 0.529 µM | > 100 µM | 0.832 µM | > 65 µM | 7.81 µM | > 100 µM | 0.41 µM | > 69 µM | 0.639 µM | > 100 µM | 2.37 µM | > 93.7 µM
COc1cc(C(=O)/C=C/c2c[nH]c3ccccc23)cc(OC)c1OC | 0.037 µM | 15.6 µM | 0.0508 µM | 16.1 µM | < 0.0187 µM | 19.4 µM | 0.0212 µM | 29 µM | < 0.0212 µM | 27.9 µM | < 0.012 µM | 0.0488 µM | < 0.0195 µM | 16.1 µM | 0.0631 µM | 18.9 µM
CCOC(=O)c1c(CN2CCCCC2)nc2ccc(Cl)cc2c1-c1ccccc1 | 35.4 µM | > 100 µM | 20 µM | 44.2 µM | 21.4 µM | 47.9 µM | 23.9 µM | 56.5 µM | 23.8 µM | 93.7 µM | 17.7 µM | 38.1 µM | 20.3 µM | 41.2 µM | 20.3 µM | 45 µM
COc1cc(/C=N/NC(=O)c2cnn3c2NC(c2ccccc2)C3)ccc1OCc1ccccc1 (centres undefined) | 2.15 µM | 9.54 µM | 0.573 µM | 2.79 µM | 0.461 µM | 6.68 µM | 1.2 µM | 4.27 µM | 0.967 µM | 3.23 µM | 0.331 µM | 1.34 µM | 1.14 µM | 3.07 µM | 2.26 µM | 11 µM
